Measured values: ChEMBL document CHEMBL1150884, “Antifungal amide from leaves of Piper hispidum” (1998)

Tested on: Cladosporium sphaerospermum
Assay: Antifungal activity against Cladosporium sphaerospermum after 72 hrs in dark by TLC assay
Assay type: functional

- MIC: 8 µg
Compound: O=C(/C=C\C=C/CCc1ccc2c(c1)OCO2)N1CCCC1
